Values of other authors, collected in patent US20260183325A1, “SUSTAINED OR IMMEDIATE RELEASE ENERGY, MENTAL FOCUS, AND PHYSICAL RECOVERY NUTRITIONAL SUPPLEMENT BLEND, DIETARY SUPPLEMENT, FUNCTIONAL FOOD AND FUNCTIONAL BEVERAGE” (Matchstick Brands, LLC, priority 2023, published 2026).

Conditions: during working memory processes (Koppelstatter et al. 2008)

Cn1c(=O)c2c(ncn2C)n(C)c1=O [caffeine]
fMRI signal changes in a network of brain areas associated with executive and attentional functions: increases
